Measured values: article PMC12608155, “Discovery of Potential Antileishmanial Compounds Through Phenotypic Screening of an Alkaloid Library” (Molecules, 2025)
Where two headings read alike, the source gives them in different places.

Tests used:
[1] = Cytotoxicity in HepG2 cells (alamarBlue, 72 h); conditions: human
Description: (§1) To this end, we calculated SIs from 16 preselected results from the ex vivo system. With this aim, dose–response curves were performed in duplicate across at least three independent experiments using RAW 264.7 mouse macrophages (as a model of host cells harboring amastigotes) and HepG2 (as a model for assessing systemic toxicity).
(§2) To evaluate the safety of the selected compounds, two cell lines were employed: RAW 264.7 (a mouse macrophage-derived cell line) and HepG2 (a human hepatoma cell line). Furthermore, to determine the intestinal tolerance relevant to potential oral administration, mouse intestinal organoids were prepared.
(§3) RAW 264.7 and HepG2 were routinely cultured under standard conditions. RAW 264.7 cells were maintained in RPMI medium (Gibco) supplemented with, 25 mM HEPES, 24 mM NaHCO3, 2 mM L-glutamine, mixture of antibiotics and 10% FBS. HepG2 cells were cultured in DMEM/F-12 (Gibco) and supplemented 10% of FBS. For cytotoxicity assays, 10,000 cells per well were seeded into 96-well plates and incubated overnight at 37 °C with 5% of CO2. Subsequently, 2-fold serial dilutions of the compounds were added and incubated for 72 h. Cell viability using the alamarBlue™ assay according to the manufacturer’s instructions, and fluorescence was measured with a Varioskan™ LUX microplate reader (ThermoFisher Scientific, Waltham, MA, USA). Non-linear regression analyses were performed using SigmaPlot^TM software (version 10.0) to calculate CC50. Data were obtained from at least three independent experiments performed in duplicate.

[2] = system: L. donovani IRFP axenic amastigotes; experiment: Dose-response assay on axenic amastigotes; type: cell-based, Leishmania donovani; conditions: Leishmania donovani
Description: The objective of the present study was to identify new antileishmanial drug candidates by screening a commercial library of plant-derived alkaloids using a platform based on axenic amastigotes of L. donovani IRFP—the causative agent of VL—genetically modified to emit infrared fluorescence during their viable stage (hereafter referred to as L. donovani IRFP). To this end, single-dose assays at 10 μM and 1 μM, as well as dose–response assays, were performed. Compounds showing significant activity in the initial screening were subsequently clustered according to chemical structure using the DataWarrior tool, and representative compounds were further evaluated in dose response assays against axenic amastigotes.
Female Balb/c mice aged from 6 to 8 weeks were intraperitoneally inoculated with 1.5 × 10^9 infective L. donovani IRFP metacyclic promastigotes. Between 8 and 12 weeks after infection, mice were humanely euthanised and bone marrow was collected from the femurs and tibias of both hind limbs. The bones were cut at both ends, and prewarmed PBS was flushed through the medullary cavity using a syringe fitted with a 27G needle, to extract the bone marrow cells. The resulting cell suspension was filtered through a 100 µm cell strainer and centrifuged at 2500 rpm for 10 min at room temperature. To obtain free amastigotes, the pelleted cells were resuspended within a 75 mL ventilated flask in amastigote culture medium (15 mM KCl; 136 mM KH2PO4; 10 mM K2HPO4.3H2O; 0.5 mM MgSO4.7 H2O; 24 mM NaHCO3; 22 mM glucose; 1 mM glutamine, 1x RPMI 1640 vitamin mix (Sigma-Aldrich, Merck, Darmstadt, Germany), 10 mM folic acid, […], 1x RPMI amino acid mix (Sigma-Aldrich, Merck, Darmstadt, Germany), […], antibiotic mixture, 25 mM MES, 10% FBS (Gibco, ThermoFisher Scientific, Waltham, MA, USA) and incubated at 37 °C in a humidified atmosphere containing 5% CO2 [46].
The efficacy of the selected compounds was assessed by measuring near-infrared fluorescence (700 nm) using an Odyssey Infrared Imaging System (Li-Cor, Lincoln, NE, USA) following the previously described protocols.

[3] = system: L. donovani IRFP axenic amastigotes; experiment: Primary single-concentration screening on axenic amastigotes, growth inhibition at 72 h; type: cell-based, Leishmania donovani; conditions: for inhibition at 1 µM / inhibition at 10 µM: Leishmania donovani
[4] = Cytotoxicity in RAW 264.7 cells (alamarBlue, 72 h); conditions: mouse
Description: as §1, §2, §3

[5] = system: L. donovani IRFP intramacrophagic amastigotes; experiment: Dose-response assay on ex vivo infected splenic explants (intramacrophagic amastigotes); type: cell-based, Leishmania donovani; conditions: Leishmania donovani, Splenocyte, read-out: EC50 Intramacrophagic Amastigotes
[6] = 1 µM, experiment 1, 72 h, axenic amastigotes, read-out: Growth Inhibition (%) at 72h, 1 µM_Exp1
[7] = 1 µM, experiment 2, 72 h, axenic amastigotes, read-out: Growth Inhibition (%) at 72h, 1 µM_Exp2
[8] = 10 µM, experiment 1, 72 h, axenic amastigotes, read-out: Growth Inhibition (%) at 72h, 10 µM_Exp1
[9] = 10 µM, experiment 2, 72 h, axenic amastigotes, read-out: Growth Inhibition (%) at 72h, 10 µM_Exp2
[10] = primary cultures of infected mouse splenocytes
[11] = 1 µM, experiment 1, 72 h, axenic amastigotes
[12] = 1 µM, experiment 2, 72 h, axenic amastigotes
[13] = 10 µM, experiment 1, 72 h, axenic amastigotes
[14] = 10 µM, experiment 2, 72 h, axenic amastigotes

Compound	inhibition at 1 µM [3, 6]	inhibition at 1 µM [3, 7]	inhibition at 10 µM [3, 8]	inhibition at 10 µM [3, 9]	Growth Inhibition (%) at 72h, 1 µM_Exp1 [3, 11]	Growth Inhibition (%) at 72h, 1 µM_Exp2 [3, 12]	Growth Inhibition (%) at 72h, 10 µM_Exp1 [3, 13]	Growth Inhibition (%) at 72h, 10 µM_Exp2 [3, 14]	other results
COc1cc2c3c(cc4ccccc4c3c1OC)N(C)CC2 [Dehydronuciferine]	86.7%	77.8%	100%	100%					CC50 at 72 h ([1]; HepG2 hepatoma cells): 25.5 ± 5.43 µM; IC50 [2]: 1.23 ± 0.03 µM; CC50 at 72 h ([4]; RAW 264.7 macrophage cells): 18.6 ± 1.11 µM; EC50 [5, 10]: > 50 µM
COc1ccc2c(c1OC)CN(C)c1c-2ccc2cc3c(cc12)OCO3 [Dihydrochelerythrine]	100%	97.9%	100%	100%					CC50 at 72 h ([1]; HepG2 hepatoma cells): > 50 µM; IC50 [2]: 0.06 ± 0.005 µM; CC50 at 72 h ([4]; RAW 264.7 macrophage cells): > 50 µM; EC50 [5, 10]: 10.5 ± 0.75 µM
CN1Cc2c(ccc3c2OCO3)-c2ccc3cc4c(cc3c21)OCO4 [Dihydrosanguinarine]	99.3%	97.6%	99.8%	99.7%					CC50 at 72 h [1]: > 40 µM; IC50 [2]: 0.19 ± 0.01 µM; CC50 at 72 h [4]: 46.5 ± 10.1 µM; EC50 ([5]; in Mus musculus): 8.55 ± 1.33 µM
CN1[C@@H](CC(=O)c2ccccc2)CCC[C@H]1CC(=O)c1ccccc1 [Lobelanine]					-73.70%	10.47%	75.56%	20.66%	
O=C1C=CC(=O)N1 [Maleimide]	101%	101%	101%	101%					
CN1C(=O)/C(=C2/C(=O)Nc3ccccc32)c2ccccc21 [Meisoindigo]	100%	100%	100%	100%					CC50 at 72 h ([1]; HepG2 hepatoma cells): 20.4 ± 1.4 µM; IC50 [2]: 1.53 ± 0.21 µM; CC50 at 72 h ([4]; RAW 264.7 macrophage cells): 14.9 ± 0.9 µM; EC50 [5, 10]: 9.3 ± 0.52 µM
CCCCC/C=C\C/C=C\CCCCCCCC(=O)NCc1ccccc1 [N-Benzyllinoleamide]					23.06%	-24.6%	99.77%	99.86%	
CC/C=C\C/C=C\C/C=C\CCCCCCCC(=O)NCc1ccccc1 [N-Benzyllinolenamide]					-37.93%	-43.83%	99.95%	100.85%	
O=C1N[C@@H]2C(=C[C@H](O)[C@@H](O)[C@H]2O)c2cc3c(c(O)c21)OCO3 [Narciclasine]					-12.26%	-86.55%	84.56%	93.45%	
CC[C@@H]1[C@H]2CCCCN3[C@H]2[C@@H](C[C@H]3[C@@H]2C[C@H](C)C(=O)O2)[C@H]2[C@@H]1OC(=O)[C@H]2C [Neotuberostemonine]	38%	69.7%	101%	101%					CC50 at 72 h [1]: > 50 µM; IC50 [2]: 1.27 ± 0.06 µM; CC50 at 72 h [4]: 39.1 ± 2.2 µM; EC50 [5, 10]: > 25 µM
CCCCCCCCC(=O)NCc1ccc(O)c(OC)c1 [Nonivamide]	10.9%	-30.7%	101%	93.3%					
COc1cc(CNC(=O)CCCCCC(C)C)ccc1O [Nordihydrocapsaicin]									Growth Inhibition (%) at 72h, 1 µM_Exp1 [3]: 1.91%; Growth Inhibition (%) at 72h, 1 µM_Exp2 [3]: -21.65%; Growth Inhibition (%) at 72h, 10 µM_Exp1 [3]: 90.15%; Growth Inhibition (%) at 72h, 10 µM_Exp2 [3]: 70.24%
CC(C)(O)[C@H]1O[C@H]2CC[C@@]3(C)[C@@](O)(CC[C@H]4Cc5c([nH]c6ccccc56)[C@@]43C)C2=CC1=O [Paxilline]	6.12%	19.6%	98.6%	99.1%					
O=C(O)c1cccc2nc3ccccc3nc12 [Phenazine-1-carboxylic acid]	-12.2%	-87%	90.8%	87.8%					
O=C(/C=C/C=C/c1ccc2c(c1)OCO2)N1CCCCC1 [Piperine]	38.3%	17.5%	-7.31%	75.2%					
COc1cc(/C=C/C(=O)N2CCC=CC2=O)cc(OC)c1OC [Piperlongumine]					99.95%	98.63%	100.21%	100.05%	
Cc1ncc(CO)c(CO)c1O.Cl [Pyridoxine (hydrochloride)]					6.77%	-86.02%	79.17%	65.78%	
COc1c2ccoc2nc2c(O)cccc12 [Robustine]	48.3%	1.86%	90.6%	33.3%					
CC[C@@]1(O)C(=O)OCc2c1cc1n(c2=O)Cc2cc3c([N+](=O)[O-])cccc3nc2-1 [Rubitecan]	69.8%	36.9%	94.4%	89.4%					
C[C@@H]1CC[C@@]2(NC1)O[C@H]1C[C@H]3[C@@H]4CC=C5C[C@@H](O[C@@H]6O[C@H](CO)[C@@H](O[C@@H]7O[C@@H](C)[C@H](O)[C@@H](O)[C@H]7O)[C@H](O)[C@H]6O[C@@H]6O[C@@H](C)[C@H](O)[C@@H](O)[C@H]6O)CC[C@]5(C)[C@H]4CC[C@]3(C)[C@H]1[C@@H]2C [Solamargine]	62.8%	11.2%	93.6%	94.3%					
CC[C@]12C=CCN3CC[C@]4(C(=C(C(=O)OC)C1)Nc1ccccc14)[C@@H]32 [Tabersonine]	-26.2%	-7.79%	98%	61.5%					
C[C@H]1CC[C@]2(NC1)O[C@H]1C[C@H]3[C@@H]4CC[C@H]5C[C@@H](O)CC[C@]5(C)[C@H]4CC[C@]3(C)[C@H]1[C@@H]2C [Tomatidine]	11.2%	18.6%	66.9%	75.1%					
O=C1c2ccccc2-n2c1nc1ccccc1c2=O [Tryptanthrin]	13.1%	23.4%	84.1%	75%					
CC[C@]1(O)C[C@@H]2CN(CCc3c([nH]c4ccccc34)[C@@](C(=O)OC)(c3cc4c(cc3OC)N(C)[C@H]3[C@@](O)(C(=O)OC)[C@H](OC(C)=O)[C@]5(CC)C=CCN6CC[C@]43[C@@H]65)C2)C1.O=S(=O)(O)O [Vinblastine (sulfate)]					-20.42%	-25.23%	99.34%	78.77%	
Evocarpine					-18.62%	-35.10%	100.35%	98.71%	
Evodiamine					-42.64%	25.77%	94.67%	96.80%	
